Biological target: unphosphorylated-BTK kinase domain (UP-BTK), GST-tagged human BTK (389-659aa) (Homo sapiens (Human), UniProt Q06187)
Experiment: BTK kinase Lanthascreen binding assay
Settings: pIC50 = negative log of the IC50 in molar, 60 minutes incubation, 50 nM Tracer 236; for IC50: read-out: BTK_I_binding pIC50 (converted)
Method in brief: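 Measures how well compounds compete with a fluorescence-labelled tracer for binding to BTK in its unphosphorylated state. IC50 values were fitted and expressed as pIC50 (negative logarithm of the molar IC50).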

Sequence of unphosphorylated-BTK kinase domain (UP-BTK), GST-tagged human BTK (389-659aa) (Q06187 389-659): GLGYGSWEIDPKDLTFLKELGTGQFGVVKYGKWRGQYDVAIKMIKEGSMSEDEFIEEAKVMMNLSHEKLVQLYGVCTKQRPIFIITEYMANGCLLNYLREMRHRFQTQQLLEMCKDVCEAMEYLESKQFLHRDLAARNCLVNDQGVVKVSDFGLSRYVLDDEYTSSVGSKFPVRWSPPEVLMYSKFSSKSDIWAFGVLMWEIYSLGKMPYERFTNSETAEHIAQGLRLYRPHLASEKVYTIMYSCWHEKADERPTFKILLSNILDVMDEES

Row | SMILES | BTK_I_binding pIC50 | IC50
1 | C=CC(=O)N1CC[C@@H](NC(=O)c2sc3nccc4c3c2NC(=O)N4c2ccc(Oc3cccc4ccoc34)cc2C)C1 [Example 22, (R)—N-(1-Acryloylpyrrolidin-3-yl)-5-(4-(benzofuran-7-yloxy)-2-methylphenyl)-4-oxo-4,5-dihydro-3H-1-thia-3,5,8-triazaacenaphthylene-2-carboxamide] | 7.4 | –
2 | Cc1cc(Oc2ccccc2)ccc1N1C(=O)Nc2c(C(=O)N[C@@H]3CCCN(C(=O)/C=C/CN)C3)sc3nccc1c23 [Example 27, (R,E)-N-(1-(4-Aminobut-2-enoyl)piperidin-3-yl)-5-(2-methyl-4-phenoxyphenyl)-4-oxo-4,5-dihydro-3H-1-thia-3,5,8-triazaacenaphthylene-2-carboxamide] | – | 0.0501 µM
3 | Cc1cc(Oc2ccccc2)ccc1N1C(=O)Nc2c(C(=O)NC3COCCN(C#N)C3)sc3nccc1c23 (centres unmarked) [Example 31, N-(4-Cyano-1,4-oxazepan-6-yl)-5-(2-methyl-4-phenoxyphenyl)-4-oxo-4,5-dihydro-3H-1-thia-3,5,8-triazaacenaphthylene-2-carboxamide] | – | 0.02 µM
4 | C=CC(=O)N1C[C@H](NC(=O)c2sc3nccc4c3c2NC(=O)N4c2ccc(Oc3ccccc3)cc2C)[C@@H](F)C1 [Example 36, N-((3S,4S)-1-Acryloyl-4-fluoropyrrolidin-3-yl)-5-(2-methyl-4-phenoxyphenyl)-4-oxo-4,5-dihydro-3H-1-thia-3,5,8-triazaacenaphthylene-2-carboxamide] | – | 0.02 µM
5 | C=CC(=O)N1C[C@@H](F)[C@@H](NC(=O)c2sc3nccc4c3c2NC(=O)N4c2ccc(Oc3ccccc3)cc2C)C1 [Example 37, N-((3S,4R)-1-Acryloyl-4-fluoropyrrolidin-3-yl)-5-(2-methyl-4-phenoxyphenyl)-4-oxo-4,5-dihydro-3H-1-thia-3,5,8-triazaacenaphthylene-2-carboxamide] | 7.6 | –
6 | C=CC(=O)N1CC[C@@H](NC(=O)c2sc3nccc4c3c2NC(=O)N4c2ccc(OC3CCCCC3)cc2C)C1 [Example 39, (R)—N-(1-Acryloylpyrrolidin-3-yl)-5-(4-(cyclohexyloxy)-2-methylphenyl)-4-oxo-4,5-dihydro-3H-1-thia-3,5,8-triazaacenaphthylene-2-carboxamide] | 7.4 | –
7 | Cc1cc(Oc2ccccc2)ccc1N1C(=O)Nc2c(C(=O)N[C@@H]3CCCN(C(=O)/C(C#N)=[13CH]/C4CC4)C3)sc3nccc1c23 [Example 41, (R,E)-N-(1-(2-Cyano-3-^13C-cyclopropylacryloyl)piperidin-3-yl)-5-(2-methyl-4-phenoxyphenyl)-4-oxo-4,5-dihydro-3H-1-thia-3,5,8-triazaacenaphthylene-2-carboxamide] | – | 0.0501 µM
8 | CC#CC(=O)N1CCC[C@@H](NC(=O)c2sc3nccc4c3c2NC(=O)N4c2ccc(Oc3ccccc3)cc2C)C1 [Example 42, (R)—N-(1-(But-2-ynoyl)piperidin-3-yl)-5-(2-methyl-4-phenoxyphenyl)-4-oxo-4,5-dihydro-3H-1-thia-3,5,8-triazaacenaphthylene-2-carboxamide] | 7.0 | –
9 | C=CC(=O)N1CC[C@@H](NC(=O)c2sc3nccc4c3c2NC(=O)N4c2c(C)cc(Oc3ccccc3)cc2F)C1 [Example 45, (R)—N-(1-Acryloylpyrrolidin-3-yl)-5-(2-fluoro-6-methyl-4-phenoxyphenyl)-4-oxo-4,5-dihydro-3H-1-thia-3,5,8-triazaacenaphthylene-2-carboxamide] | 7.1 | –
10 | N#C/C(=C\C1CC1)C(=O)N1CCC[C@@H](NC(=O)c2sc3nccc4c3c2NC(=O)N4c2ccc(Oc3ccccc3)cc2)C1 [Example 47, (R,E)-N-(1-(2-Cyano-3-cyclopropylacryloyl)piperidin-3-yl)-4-oxo-5-(4-phenoxyphenyl)-4,5-dihydro-3H-1-thia-3,5,8-triazaacenaphthylene-2-carboxamide] | 8.0 | –
11 | Cc1cc(Oc2c(F)cccc2F)ccc1N1C(=O)Nc2c(C(=O)N[C@@H]3CCCN(C)C3)sc3nccc1c23 [Example 52, (R)-5-(4-(2,6-Difluorophenoxy)-2-methylphenyl)-N-(1-methylpiperidin-3-yl)-4-oxo-4,5-dihydro-3H-1-thia-3,5,8-triazaacenaphthylene-2-carboxamide] | 7.0 | –
12 | C=CC(=O)N1C[C@@H](O)[C@@H](NC(=O)c2sc3nccc4c3c2NC(=O)N4c2ccc(Oc3ccccc3)cc2C)C1 [Example 58, N-((3S,4R)-1-Acryloyl-4-hydroxypyrrolidin-3-yl)-5-(2-methyl-4-phenoxyphenyl)-4-oxo-4,5-dihydro-3H-1-thia-3,5,8-triazaacenaphthylene-2-carboxamide] | 7.6 | –
13 | Cc1c(N2C(=O)Nc3c(C(=O)N[C@@H]4CCCN(C)C4)sc4nccc2c34)ccc(Oc2ccccc2)c1F [Example 59, (R)-5-(3-Fluoro-2-methyl-4-phenoxyphenyl)-N-(1-methylpiperidin-3-yl)-4-oxo-4,5-dihydro-3H-1-thia-3,5,8-triazaacenaphthylene-2-carboxamide] | 7.3 | –
14 | CCCN1CCC[C@@H](NC(=O)c2sc3nccc4c3c2NC(=O)N4c2ccc(Oc3ccccc3)cc2C)C1 [Example 60, (R)-5-(2-Methyl-4-phenoxyphenyl)-4-oxo-N-(1-propylpiperidin-3-yl)-4,5-dihydro-3H-1-thia-3,5,8-triazaacenaphthylene-2-carboxamide] | 6.8 | –
15 | Cc1c(N2C(=O)Nc3c(C(=O)N[C@H]4CCCOC4)sc4nccc2c34)ccc(Oc2ccccc2)c1F [Example 61, (S)-5-(3-Fluoro-2-methyl-4-phenoxyphenyl)-4-oxo-N-(tetrahydro-2H-pyran-3-yl)-4,5-dihydro-3H-1-thia-3,5,8-triazaacenaphthylene-2-carboxamide] | 7.3 | –
16 | C=CC(=O)N1CCC[C@@H](NC(=O)c2sc3nccc4c3c2NC(=O)N4c2ccc(Oc3c(F)cccc3F)cc2C)C1 [Example 64, (R)—N-(1-Acryloylpiperidin-3-yl)-5-(4-(2,6-difluorophenoxy)-2-methylphenyl)-4-oxo-4,5-dihydro-3H-1-thia-3,5,8-triazaacenaphthylene-2-carboxamide] | 7.6 | –

Further lines, results first:

Row | BTK_I_binding pIC50 | IC50 | SMILES
17 | – | 0.0501 µM | C=C(Cl)C(=O)N1CCC[C@@H](NC(=O)c2sc3nccc4c3c2NC(=O)N4c2ccc(Oc3ccccc3)cc2C)C1 [Example 26, (R)—N-(1-(2-Chloroacryloyl)piperidin-3-yl)-5-(2-methyl-4-phenoxyphenyl)-4-oxo-4,5-dihydro-3H-1-thia-3,5,8-triazaacenaphthylene-2-carboxamide]
18 | 7.6 | – | Cc1cc(Oc2ccccc2)ccc1N1C(=O)Nc2c(C(=O)N[C@@H]3CCN(C(=O)/C=C/CO)C3)sc3nccc1c23 [Example 30, (R,E)-N-(1-(4-Hydroxybut-2-enoyl)pyrrolidin-3-yl)-5-(2-methyl-4-phenoxyphenyl)-4-oxo-4,5-dihydro-3H-1-thia-3,5,8-triazaacenaphthylene-2-carboxamide]
19 | – | 0.0501 µM | C=CC(=O)N1CCC[C@@H](NC(=O)c2sc3nccc4c3c2NC(=O)N4c2ccc(OC3CCCCC3)cc2C)C1 [Example 32, (R)—N-(1-Acryloylpiperidin-3-yl)-5-(4-(cyclohexyloxy)-2-methylphenyl)-4-oxo-4,5-dihydro-3H-1-thia-3,5,8-triazaacenaphthylene-2-carboxamide]
20 | – | 0.0316 µM | C=CC(=O)N1CCC[C@@H](NC(=O)c2sc3nccc4c3c2NC(=O)N4c2ccc(OC(C)C)cc2C)C1 [Example 33, (R)—N-(1-Acryloylpiperidin-3-yl)-5-(4-isopropoxy-2-methylphenyl)-4-oxo-4,5-dihydro-3H-1-thia-3,5,8-triazaacenaphthylene-2-carboxamide]
21 | 7.6 | – | COC(C)(C)/C=C(\C#N)C(=O)N1CCC[C@@H](NC(=O)c2sc3nccc4c3c2NC(=O)N4c2ccc(Oc3ccccc3)cc2C)C1 [Example 40, (R,E)-N-(1-(2-Cyano-4-methoxy-4-methylpent-2-enoyl)piperidin-3-yl)-5-(2-methyl-4-phenoxyphenyl)-4-oxo-4,5-dihydro-3H-1-thia-3,5,8-triazaacenaphthylene-2-carboxamide]
22 | 6.9 | – | C=C(F)C(=O)N1CCC[C@@H](NC(=O)c2sc3nccc4c3c2NC(=O)N4c2ccc(Oc3ccccc3)cc2C)C1 [Example 48, (R)—N-(1-(2-Fluoroacryloyl)piperidin-3-yl)-5-(2-methyl-4-phenoxyphenyl)-4-oxo-4,5-dihydro-3H-1-thia-3,5,8-triazaacenaphthylene-2-carboxamide]
23 | 7.5 | – | C=CC(=O)N1CCC[C@@H](NC(=O)c2sc3nccc4c3c2NC(=O)N4c2ccc(OC3CC3)cc2C)C1 [Example 51, (R)—N-(1-Acryloylpiperidin-3-yl)-5-(4-cyclopropoxy-2-methylphenyl)-4-oxo-4,5-dihydro-3H-1-thia-3,5,8-triazaacenaphthylene-2-carboxamide]
24 | 7.3 | – | C=CC(=O)N1C[C@H](NC(=O)c2sc3nccc4c3c2NC(=O)N4c2ccc(Oc3ccccc3)cc2C)[C@@H](OC)C1 [Example 54, N-((3S,4S)-1-Acryloyl-4-methoxypyrrolidin-3-yl)-5-(2-methyl-4-phenoxyphenyl)-4-oxo-4,5-dihydro-3H-1-thia-3,5,8-triazaacenaphthylene-2-carboxamide]
25 | 7.1 | – | C=CC(=O)N1CCC[C@@H](NC(=O)c2sc3nccc4c3c2NC(=O)N4c2ccc(CC)cc2C)C1 [Example 62, (R)—N-(1-Acryloylpiperidin-3-yl)-5-(4-ethyl-2-methylphenyl)-4-oxo-4,5-dihydro-3H-1-thia-3,5,8-triazaacenaphthylene-2-carboxamide]
26 | 6.6 | – | C=CC(=O)N1CCC[C@@H](NC(=O)c2sc3nccc4c3c2NC(=O)N4c2ccc(OC3CCOCC3)cc2C)C1 [Example 65, (R)—N-(1-Acryloylpiperidin-3-yl)-5-(2-methyl-4-((tetrahydro-2H-pyran-4-yl)oxy)phenyl)-4-oxo-4,5-dihydro-3H-1-thia-3,5,8-triazaacenaphthylene-2-carboxamide]

Source: patent US10800792B2, “Inhibitors of Bruton's tyrosine kinase and method of their use” (JANSSEN PHARMACEUTICA NV, priority 2015, dated 2020)
